Patent publication US6472418B1, “Non-peptide NK1 receptors antagonists” (Warner-Lambert Company, priority 1998, dated 2002)

What follows are compounds tested against T1, Human NK1 Receptor (Homo sapiens, UniProt P25103) (assay: In Vitro Human NK1 Receptor Binding Assay ([125I]Bolton-Hunter substance P displacement, IM9 cells)). Conditions: Human lymphoma IM9 cells, [125I]Bolton-Hunter substance P (0.05-0.1 nM), 50 min at 21° C.; Table 1; read-out: NK1 binding IC50.
T1 construct: endogenous in cells; host or cells: Human lymphoma IM9 cells (whole cells)
Procedure, shortened: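 Test compounds competed with 0.05-0.1 nM [125I]Bolton-Hunter substance P for binding to intact IM9 cells over 50 min at 21° C, pH 7.4 buffer with MnCl2 and peptidase inhibitors. […] [Sar9, Met(O2)11] substance P gave non-specific binding. Bound counts were measured after filtration and fitted iteratively.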

T1 sequence (P25103 whole entry): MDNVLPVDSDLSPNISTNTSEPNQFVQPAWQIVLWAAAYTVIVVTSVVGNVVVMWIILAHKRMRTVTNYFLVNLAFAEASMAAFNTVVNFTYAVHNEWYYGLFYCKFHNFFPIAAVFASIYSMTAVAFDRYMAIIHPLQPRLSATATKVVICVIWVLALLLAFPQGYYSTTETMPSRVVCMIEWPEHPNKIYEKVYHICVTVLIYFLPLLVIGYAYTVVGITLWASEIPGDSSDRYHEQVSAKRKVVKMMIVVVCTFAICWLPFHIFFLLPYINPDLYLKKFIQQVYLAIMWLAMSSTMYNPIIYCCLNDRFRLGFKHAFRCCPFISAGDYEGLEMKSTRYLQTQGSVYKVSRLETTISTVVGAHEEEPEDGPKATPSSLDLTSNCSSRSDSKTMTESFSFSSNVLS

| IC50 | Compound |
| --- | --- |
| 27 nM | Cc1cc(CN[C@H](Cc2c[nH]c3ccccc23)C(=O)N[C@@H](C)c2ccccc2)oc1C (relative stereo) [Example 8, 2-[(4,5-Dimethyl-furan-2-ylmethyl)-amino]-3-(1H-indol-3-yl)-N-(1-phenyl-ethyl)-propionamide, [R-(R*,S*)]] |
| > 10000 nM | C[C@H](NC(=O)[C@@H](Cc1c[nH]c2ccccc12)NCc1cccc([N+](=O)[O-])c1)c1ccccc1 (relative stereo) [Example 15, 3-(1H-Indol-3-yl)-2-(3-nitro-benzylamino)-N-(1-phenyl-ethyl)-propionamide, [R-(R*,S*)]] |

Same assay, conditions: Human lymphoma IM9 cells, [125I]Bolton-Hunter substance P; Table 3, array-synthesis products; read-out: IC50 (nM) hNK1

| IC50 | Compound |
| --- | --- |
| 35 nM | N#CC(NC(=O)C(Cc1c[nH]c2ccccc12)NCc1cc2ccccc2o1)c1ccccc1 (centres unmarked) [Example 287, 2-[(Benzofuran-2-ylmethyl)-amino]-N-(cyano-phenyl-methyl)-3-(1H-indol-3-yl)-propionamide] |
| 2900 nM | O=C(NC1CC1c1ccccc1)C(Cc1c[nH]c2ccccc12)NCc1cc2ccccc2o1 (centres unmarked) [Example 224, 2-[(Benzofuran-2-ylmethyl)-amino]-3-(1H-indol-3-yl)-N-(2-phenyl-cyclopropyl)-propionamide] |
| 2 nM | CC(NC(=O)C(Cc1c[nH]c2ccccc12)NCc1cc2ccccc2o1)C1CCCCC1 (centres unmarked) [Example 241, 2-[(Benzofuran-2-ylmethyl)-amino]-N-(1-cyclohexyl-ethyl)-3-(1H-indol-3-yl)-propionamide] |
| 933 nM | CC(NC(=O)C(Cc1c[nH]c2ccccc12)NCc1cc2ccccc2o1)c1cccc2ccccc12 (centres unmarked) [Example 197, 2-[(Benzofuran-2-ylmethyl)-amino]-3-(1H-indol-3-yl)-N-(1-naphthalen-1-yl-ethyl)-propionamide] |
| 196 nM | COc1ccc(CCNC(=O)C(Cc2c[nH]c3ccccc23)NCc2cc3ccccc3o2)cc1 (centres unmarked) [Example 271, 2-[(Benzofuran-2-ylmethyl)-amino]-3-(1H-indol-3-yl)-N-[2-(4-methoxy-phenyl)-ethyl]-propionamide] |
| 392 nM | CC(CCc1ccccc1)NC(=O)C(Cc1c[nH]c2ccccc12)NCc1cc2ccccc2o1 (centres unmarked) [Example 307, 2-[(Benzofuran-2-ylmethyl)-amino]-3-(1H-indol-3-yl)-N-(1-methyl-3-phenyl-propyl)-propionamide] |
| 209 nM | O=C(NC(CO)Cc1ccccc1)C(Cc1c[nH]c2ccccc12)NCc1cc2ccccc2o1 (centres unmarked) [Example 289, 2-[(Benzofuran-2-ylmethyl)-amino]-N-(1-hydroxymethyl-2-phenyl-ethyl)-3-(1H-indol-3-yl)-propionamide] |
| > 10000 nM | O=C(NC1CCCCC1O)C(Cc1c[nH]c2ccccc12)NCc1cc2ccccc2o1 (centres unmarked) [Example 270, 2-[(Benzofuran-2-ylmethyl)-amino]-N-(2-hydroxy-cyclohexyl)-3-(1H-indol-3-yl)-propionamide] |

Same assay, conditions: Table 4; [125I]Bolton-Hunter substance P displacement, human IM9 cells; read-out: IC50 (nM) hNK1

| IC50 | Compound |
| --- | --- |
| 5560 nM | CC(NC(=O)C(C)(Cc1c[nH]c2ccccc12)NCc1ccc(-c2ccccc2)cc1)c1ccccc1 (centres unmarked) [compound 348, 2-[(Biphenyl-4-ylmethyl)-amino]-3-(1H-indol-3-yl)-2-methyl-N-(1-phenyl-ethyl)-propionamide] |
| 185 nM | CC(NC(=O)C(C)(Cc1c[nH]c2ccccc12)NCc1cccc(OCc2ccccc2)c1)c1ccccc1 (centres unmarked) [compound 344, 2-(3-Benzyloxy-benzylamino)-3-(1H-indol-3-yl)-2-methyl-N-(1-phenyl-ethyl)-propionamide] |
| > 10000 nM | CC(NC(=O)C(C)(Cc1c[nH]c2ccccc12)NCc1nc2ccccc2[nH]1)c1ccccc1 (centres unmarked) [compound 316, 2-[(1H-Benzoimidazol-2-ylmethyl)-amino]-3-(1H-indol-3-yl)-2-methyl-N-(1-phenyl-ethyl)-propionamide] |
| 1600 nM | CC(NC(=O)C(C)(Cc1c[nH]c2ccccc12)NCc1cncc2ccccc12)c1ccccc1 (centres unmarked) [compound 318, 3-(1H-Indol-3-yl)-2-[(isoquinolin-4-ylmethyl)-amino]-2-methyl-N-(1-phenyl-ethyl)-propionamide] |

| Compound | IC50 |
| --- | --- |
| 3-(1H-Indol-3-yl)-2-methyl-N-(1-phenyl-ethyl)-2-[(pyridin-4-ylmethyl)-amino]-propionamide [compound 313] | 50 nM |
| CNS(=O)(=O)c1cc(CNC(C)(Cc2c[nH]c3ccccc23)C(=O)NC(C)c2ccccc2)ccc1Cl (centres unmarked) [compound 326, 2-(4-Chloro-3-methylsulfamoyl-benzylamino)-3-(1H-indo1-3-yl)-2-methyl-N-(1-phenyl-ethyl)-propionamide] | 4830 nM |

Same assay, conditions: Table 5; [125I]Bolton-Hunter substance P displacement, human IM9 cells; read-out: IC50 (nM) hNK1

| IC50 | Compound |
| --- | --- |
| 3910 nM | CC(NC(=O)C(Cc1c[nH]c2ccccc12)NCCCc1ccccc1)c1ccccc1 (centres unmarked) [compound 403] |
| > 10000 nM | CC(NC(=O)C(Cc1c[nH]c2ccccc12)NCc1cc(C(F)(F)F)cc(C(F)(F)F)c1)c1ccccc1 (centres unmarked) [compound 398] |
| 50 nM | CC(NC(=O)C(Cc1c[nH]c2ccccc12)NCc1ccc(-c2ccc([N+](=O)[O-])cc2)o1)c1ccccc1 (centres unmarked) [compound 390] |

Same assay, conditions: human NK1 receptor, IM9 cells, [125I]Bolton-Hunter substance P; read-out: IC50 (nM) hNK1

| IC50 | Compound |
| --- | --- |
| 5920 nM | CC(Cc1c[nH]c2ccccc12)(NCc1cc2ccccc2o1)C(=O)NCc1cnc(N)nc1N (centres unmarked) [compound 179, 2-[(Benzofuran-2-ylmethyl)-amino]-N-(2,4-diamino-pyrimidin-5-ylmethyl)-3-(1H-indol-3-yl)-2-methyl-propionamide] |
| > 10000 nM | CC(Cc1c[nH]c2ccccc12)(NCc1cc2ccccc2o1)C(=O)NCC1CCNC1 (centres unmarked) [compound 154, 2-[(Benzofuran-2-ylmethyl)-amino]-3-(1H-indol-3-yl)-2-methyl-N-pyrrolidin-3-ylmethyl-propionamide] |
| > 10000 nM | CC(NC(=O)C(C)(Cc1c[nH]c2ccccc12)NCc1cc2ccccc2o1)c1cccc2ccccc12 (centres unmarked) [compound 32, 2-[(Benzofuran-2-ylmethyl)-amino]-3-(1H-indol-3-yl)-2-methyl-N-(1-naphthalen-1-yl-ethyl)-propionamide] |
| > 10000 nM | CC(Cc1c[nH]c2ccccc12)(NCc1cc2ccccc2o1)C(=O)NCCCN1CCN(c2ccccn2)CC1 (centres unmarked) [compound 87, 2-[(Benzofuran-2-ylmethyl)-amino]-3-(1H-indol-3-yl)-2-methyl-N-[3-(4-pyridin-2-yl-piperazin-1-yl)-propyl]-propionamide] |
| 42 nM | CCC(NC(=O)C(C)(Cc1c[nH]c2ccccc12)NCc1cc2ccccc2o1)c1ccccc1 (centres unmarked) [compound 162, 2-[(Benzofuran-2-ylmethyl)-amino]-3-(1H-indol-3-yl)-2-methyl-N-(1-phenyl-propyl)-propionamide] |
| 390 nM | CC(Cc1c[nH]c2ccccc12)(NCc1cc2ccccc2o1)C(=O)NCc1ccc([N+](=O)[O-])o1 (centres unmarked) [compound 100, 2-[(Benzofuran-2-ylmethyl)-amino]-3-(1H-indol-3-yl)-2-methyl-N-(5-nitro-furan-2-ylmethyl)-propionamide] |
| 3610 nM | CC(Cc1c[nH]c2ccccc12)(NCc1cc2ccccc2o1)C(=O)NCc1ncc(C(=O)O)c(O)n1 (centres unmarked) [compound 43, 2-{[2-[(Benzofuran-2-ylmethyl)-amino]-3-(1H-indol-3-yl)-2-methyl-propionylamino]-methyl}-4-hydroxy-pyrimidine-5-carboxylic acid] |
| > 10000 nM | Cc1[nH]cnc1CCNC(=O)C(C)(Cc1c[nH]c2ccccc12)NCc1cc2ccccc2o1 (centres unmarked) [compound 101, 2-[(Benzofuran-2-ylmethyl)-amino]-3-(1H-indol-3-yl)-2-methyl-N-[2-(5-methyl-1H-imidazol-4-yl)-ethyl]-propionamide] |
| 837 nM | CC(Cc1c[nH]c2ccccc12)(NCc1cc2ccccc2o1)C(=O)NCc1ccc(N)cc1 (centres unmarked) [compound 62, N-(4-Amino-benzyl)-2-[(benzofuran-2-ylmethyl)-amino]-3-(1H-indol-3-yl)-2-methyl-propionamide] |
| > 10000 nM | COC(=O)c1ccc(CNC(=O)C(C)(Cc2c[nH]c3ccccc23)NCc2cc3ccccc3o2)c(OC)c1 (centres unmarked) [compound 81, 4-{[2-[(Benzofuran-2-ylmethyl)-amino]-3-(1H-indol-3-yl)-2-methyl-propionylamino]-methyl}-3-methoxy-benzoic acid methyl ester] |
| 18 nM | CC(Cc1c[nH]c2ccccc12)(NCc1cc2ccccc2o1)C(=O)NCc1cccc(Br)c1 (centres unmarked) [compound 72, 2-[(Benzofuran-2-ylmethyl)-amino]-N-(3-bromo-benzyl)-3-(1H-indol-3-yl)-2-methyl-propionamide] |
| 1230 nM | CC(Cc1c[nH]c2ccccc12)(NCc1cc2ccccc2o1)C(=O)NCC(O)c1ccccc1 (centres unmarked) [compound 73, 2-[(Benzofuran-2-ylmethyl)-amino]-N-(2-hydroxy-2-phenyl-ethyl)-3-(1H-indol-3-yl)-2-methyl-propionamide] |
| 262 nM | CC(CNC(=O)C(C)(Cc1c[nH]c2ccccc12)NCc1cc2ccccc2o1)c1ccccc1 (centres unmarked) [compound 150, 2-[(Benzofuran-2-ylmethyl)-amino]-3-(1H-indol-3-yl)-2-methyl-N-(2-phenyl-propyl)-propionamide] |
| > 10000 nM | CC(Cc1c[nH]c2ccccc12)(NCc1cc2ccccc2o1)C(=O)NCCN1CCCC1=O (centres unmarked) [compound 99, 2-[(Benzofuran-2-ylmethyl)-amino]-3-(1H-indol-3-yl)-2-methyl-N-[2-(2-oxo-pyrrolidin-1-yl)-ethyl]-propionamide] |

| Compound | IC50 |
| --- | --- |
| CC(NC(=O)C(C)(Cc1c[nH]c2ccccc12)NCc1cc2ccccc2o1)c1ccccc1 (centres unmarked) [compound 42, 2-[(Benzofuran-2-ylmethyl)-amino]-3-(1H-indol-3-yl)-2-methyl-N-(1-phenyl-ethyl)-propionamide] | 261 nM |
| CC(Cc1c[nH]c2ccccc12)(NCc1cc2ccccc2o1)C(=O)NCCCN1CCCC1=O (centres unmarked) [compound 91] | > 10000 nM |
